Assay results from US20240425479A1, “HALO-SUBSTITUTED AMINO AZA-HETEROARYL COMPOUNDS AS INHIBITORS OF THE HAEMATOPOIETIC PROGENITOR KINASE 1 (HPK1)” (priority 2021, published 2024).
Where a name gives a salt, the structure may show the parent alone.

Tests used:
[1] = target: T1, Recombinant (1-346) HPK1 (h) (Homo sapiens, UniProt Q92918); experiment: HPK1 human STE kinase enzymatic radiometric assay; type: biochemical; details: read-out: HPK1 IC50 nM Range
T1 construct: Recombinant (1-346) HPK1 (h) is incubated with 8 mM MOPS pH 7.0
T1 sequence (Q92918 1-346): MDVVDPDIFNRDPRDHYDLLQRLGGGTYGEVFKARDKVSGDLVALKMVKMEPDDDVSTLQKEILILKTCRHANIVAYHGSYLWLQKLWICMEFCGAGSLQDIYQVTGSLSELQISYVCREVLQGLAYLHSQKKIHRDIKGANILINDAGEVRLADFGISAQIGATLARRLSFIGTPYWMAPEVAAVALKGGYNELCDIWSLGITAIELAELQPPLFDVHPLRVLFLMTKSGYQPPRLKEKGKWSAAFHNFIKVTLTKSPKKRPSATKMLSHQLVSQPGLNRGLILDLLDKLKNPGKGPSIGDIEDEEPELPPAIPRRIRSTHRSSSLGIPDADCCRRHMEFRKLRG
How it was run: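 Compounds in 3-fold, 9-point serial dilution; kinase (residues 1-346) phosphorylates myelin basic protein (0.33 mg/mL) using [gamma-33P]-ATP at pH 7.0 (MOPS, EDTA, Mg acetate) for 40 min, room temperature. Acid-quenched mixture filtered onto P30 mats; incorporated radioactivity read by scintillation counting.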

[2] = target: Lck (h) (Homo sapiens, UniProt P06239); experiment: Lck human STE kinase enzymatic radiometric assay; type: biochemical; details: for IC50: read-out: Lck IC50 nM Range
Description: (b) Lck Human STE Kinase Enzymatic Radiometric Assay
Lck (h) is incubated with 50 mM Tris pH 7.5, 0.1 mM EGTA, 0.1 mM Na3VO4, 250 uM KVEKIGEGTYGVVYK (Cdc2 peptide), 10 mM MgAcetate and [gamma-33P]-ATP (specific activity and concentration as required). The reaction is initiated by the addition of the Mg/ATP mix. After incubation for 40 minutes at room temperature, the reaction is stopped by the addition of phosphoric acid to a concentration of 0.5%, 10 μL of the reaction is then spotted onto a P30 filtermat and washed four times for 4 minutes in 0.425% phosphoric acid and once in methanol prior to drying and scintillation counting. For more details on the kinase assay procedures see: Gao, Y. et. al.; Biochem J., 451 (2): 313-328, 2013.

Chain of Lck (h) (P06239 whole entry): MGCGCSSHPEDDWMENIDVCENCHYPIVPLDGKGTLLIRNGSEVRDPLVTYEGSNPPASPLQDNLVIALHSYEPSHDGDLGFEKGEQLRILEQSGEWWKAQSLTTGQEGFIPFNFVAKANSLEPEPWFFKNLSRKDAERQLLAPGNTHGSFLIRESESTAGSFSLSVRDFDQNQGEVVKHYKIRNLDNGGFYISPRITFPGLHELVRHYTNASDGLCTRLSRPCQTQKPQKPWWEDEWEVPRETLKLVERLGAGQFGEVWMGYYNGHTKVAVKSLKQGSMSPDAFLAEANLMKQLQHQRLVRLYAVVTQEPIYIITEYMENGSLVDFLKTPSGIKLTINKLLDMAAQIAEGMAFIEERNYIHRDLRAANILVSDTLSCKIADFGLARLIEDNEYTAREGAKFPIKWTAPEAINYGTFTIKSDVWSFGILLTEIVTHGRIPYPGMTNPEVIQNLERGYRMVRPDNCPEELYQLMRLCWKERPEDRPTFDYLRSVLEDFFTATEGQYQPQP

Compound | IC50 [1] [nM] | IC50 [2] [nM] | LcK IC50/HPK IC50 selectivity ([2]; ratio Lck IC50 / HPK1 IC50)
CC(C1CC1)N1CCN(c2ccc(-c3nc(-c4cc(F)c5c(c4)CCNC5=O)c(N)nc3F)cc2)CC1 (single isomer, unassigned) [Example I-29, 6-(3-amino-6-(4-(4-(1-cyclopropylethyl)piperazin-1-yl)phenyl)-5-fluoropyrazin-2-yl)-8-fluoro-3,4-dihydroisoquinolin-1(2H)-one] | 0.1 to 10 | 101 to 1000 | 
CC(C1CC1)N1CCN(c2ccc(-c3nc(-c4cc(F)c5c(c4)CCNC5=O)c(N)nc3F)cc2)CC1 (single isomer, unassigned) [Example I-30, 6-(3-amino-6-(4-(4-(1-cyclopropylethyl)piperazin-1-yl)phenyl)-5-fluoropyrazin-2-yl)-8-fluoro-3,4-dihydroisoquinolin-1(2H)-one] | 0.1 to 10 | 101 to 1000 | 
CC(C)N1CCN(c2ccc(-c3nc(-c4ccc5c(c4)CCNC5=O)c(N)nc3F)cc2)CC1 [Example I-1, 6-(3-amino-5-fluoro-6-(4-(4-isopropylpiperazin-1-yl)phenyl)pyrazin-2-yl)-3,4-dihydroisoquinolin-1(2H)-one] | 0.1 to 10 | > 1000 | 
CC(C)N1CCN(c2ccc(-c3nc(-c4cc5c(cc4F)C(=O)NCC5)c(N)nc3F)cc2)CC1 [Example I-2, 6-(3-amino-5-fluoro-6-(4-(4-isopropylpiperazin-1-yl)phenyl)pyrazin-2-yl)-7-fluoro-3,4-dihydroisoquinolin-1(2H)-one] | 0.1 to 10 | > 1000 | 
CN1C[C@H]2C[C@@]2(c2ccc(-c3nc(-c4cc5c(cc4F)C(=O)NCC5)c(N)nc3F)cc2)C1 [Example I-3, 6-(3-amino-5-fluoro-6-(4-((1R,5S)-3-methyl-3-azabicyclo[3.1.0]hexan-1-yl)phenyl)pyrazin-2-yl)-7-fluoro-3,4-dihydroisoquinolin-1(2H)-one] | 0.1 to 10 | > 1000 | 
CC(C)N1C[C@H]2C[C@@]2(c2ccc(-c3nc(-c4cc5c(cc4F)C(=O)NCC5)c(N)nc3F)cc2)C1 [Example I-4, 6-(3-amino-5-fluoro-6-(4-((1R,5S)-3-isopropyl-3-azabicyclo[3.1.0]hexan-1-yl)phenyl)pyrazin-2-yl)-7-fluoro-3,4-dihydroisoquinolin-1(2H)-one] | 0.1 to 10 | > 1000 | 
CN1C[C@@H]2C[C@]2(c2ccc(-c3nc(-c4cc5c(cc4F)C(=O)NCC5)c(N)nc3F)cc2)C1 [Example I-5, 6-(3-amino-5-fluoro-6-(4-((1S,5R)-3-methyl-3-azabicyclo[3.1.0]hexan-1-yl)phenyl)pyrazin-2-yl)-7-fluoro-3,4-dihydroisoquinolin-1(2H)-one] | 0.1 to 10 | > 1000 | 
CC(C)N1C[C@@H]2C[C@]2(c2ccc(-c3nc(-c4cc5c(cc4F)C(=O)NCC5)c(N)nc3F)cc2)C1 [Example I-6, 6-(3-amino-5-fluoro-6-(4-((1S,5R)-3-isopropyl-3-azabicyclo[3.1.0]hexan-1-yl)phenyl)pyrazin-2-yl)-7-fluoro-3,4-dihydroisoquinolin-1(2H)-one] | 0.1 to 10 | 101 to 1000 | 
CC(C)N1CCN(c2ccc(-c3nc(-c4ccc5c(c4)CCNC5=O)c(N)nc3Cl)cc2)CC1 [Example I-7, 6-(3-amino-5-chloro-6-(4-(4-isopropylpiperazin-1-yl)phenyl)pyrazin-2-yl)-3,4-dihydroisoquinolin-1(2H)-one] | 11 to 100 | > 1000 | 
CC(C)N1CCN(c2ccc(-c3nc(-c4cc5c(cc4F)C(=O)NCC5)c(N)nc3Cl)cc2)CC1 [Example I-8, 6-(3-amino-5-chloro-6-(4-(4-isopropylpiperazin-1-yl)phenyl)pyrazin-2-yl)-7-fluoro-3,4-dihydroisoquinolin-1(2H)-one] | 11 to 100 | > 1000 | 
CNCC1Cc2cc(-c3nc(-c4ccc(N5CCN(C(C)C)CC5)cc4)c(F)nc3N)ccc2C(=O)N1 (centres unmarked) [Example I-11, 6-(3-amino-5-fluoro-6-(4-(4-isopropylpiperazin-1-yl)phenyl)pyrazin-2-yl)-3-((methylamino)methyl)-3,4-dihydroisoquinolin-1(2H)-one] | 0.1 to 10 | > 1000 | 
CNCC1Cc2cc(-c3nc(-c4ccc(N5CCOCC5)cc4)c(F)nc3N)ccc2C(=O)N1 (centres unmarked) [Example I-12, 6-(3-amino-5-fluoro-6-(4-morpholinophenyl)pyrazin-2-yl)-3-((methylamino)methyl)-3,4-dihydroisoquinolin-1(2H)-one] | 0.1 to 10 | > 1000 | 
Nc1nc(F)c(-c2ccc(C3CCN(CC4CC4)CC3)cc2)nc1-c1cc(F)c2c(c1)CCNC2=O [Example I-13, 6-(3-amino-6-(4-(1-(cyclopropylmethyl)piperidin-4-yl)phenyl)-5-fluoropyrazin-2-yl)-8-fluoro-3,4-dihydroisoquinolin-1(2H)-one Formate] | 0.1 to 10 | > 1000 | 
CC(C)N1CCN(c2ccc(-c3nc(-c4cc(F)c5c(c4)CCNC5=O)c(N)nc3F)cc2)CC1 [Example I-14, 6-(3-amino-5-fluoro-6-(4-(4-isopropylpiperazin-1-yl)phenyl)pyrazin-2-yl)-8-fluoro-3,4-dihydroisoquinolin-1(2H)-one] | 0.1 to 10 | 101 to 1000 | 
Nc1nc(F)c(-c2ccc(N3CCOCC3)cc2)nc1-c1ccc2c(c1)CCNC2=O [Example I-17, 6-(3-amino-5-fluoro-6-(4-morpholinophenyl)pyrazin-2-yl)-3,4-dihydroisoquinolin-1(2H)-one] | 0.1 to 10 | > 1000 | 
Nc1nc(F)c(-c2ccc(C3CCOCC3)c([C@@H]3CCCN3)c2)nc1-c1ccc2c(c1)CCNC2=O [Example I-18, (S)-6-(3-amino-5-fluoro-6-(3-(pyrrolidin-2-yl)-4-(tetrahydro-2H-pyran-4-yl)phenyl)pyrazin-2-yl)-3,4-dihydroisoquinolin-1(2H)-one] | 0.1 to 10 | > 1000 | 
Nc1nc(F)c(-c2ccc(N3CCOCC3)cc2)nc1-c1ccc2c(c1)CCNC2=O [drawing 1319] |  |  | >1666

Second part, led by results:

IC50 [1] [nM] | IC50 [2] [nM] | Compound | LcK IC50/HPK IC50 selectivity ([2]; ratio Lck IC50 / HPK1 IC50)
0.1 to 10 | 101 to 1000 | CC(C)N1CC=C(c2ccc(-c3nc(-c4cc5c(cc4F)C(=O)NCC5)c(N)nc3F)cc2)CC1 [Example I-9, 6-(3-amino-5-fluoro-6-(4-(1-isopropyl-1,2,3,6-tetrahydropyridin-4-yl)phenyl)pyrazin-2-yl)-7-fluoro-3,4-dihydroisoquinolin-1(2H)-one] | 
0.1 to 10 | 101 to 1000 | CC(C)N1CCC(c2ccc(-c3nc(-c4cc(F)c5c(c4)CCNC5=O)c(N)nc3F)cc2)CC1 [Example I-10, 6-(3-amino-5-fluoro-6-(4-(1-isopropylpiperidin-4-yl)phenyl)pyrazin-2-yl)-8-fluoro-3,4-dihydroisoquinolin-1(2H)-one] | 
0.1 to 10 | > 1000 | CC(C)N1C[C@H]2C[C@@]2(c2ccc(-c3nc(-c4cc(F)c5c(c4)CCNC5=O)c(N)nc3F)cc2)C1 [Example I-15, 6-(3-amino-5-fluoro-6-(4-((1R,5S)-3-isopropyl-3-azabicyclo[3.1.0]hexan-1-yl)phenyl)pyrazin-2-yl)-8-fluoro-3,4-dihydroisoquinolin-1(2H)-one formate] | 
0.1 to 10 |  | CC(c1cc(-c2nc(-c3ccc4c(=O)[nH]cc(F)c4c3)c(N)nc2F)ccc1O)N(C)C (centres unmarked) [Example I-302, 6-(3-amino-6-(3-(1-(dimethylamino)ethyl)-4-hydroxyphenyl)-5-fluoropyrazin-2-yl)-4-fluoroisoquinolin-1(2H)-one] | 
0.1 to 10 |  | CCN(C)Cc1cc(-c2nc(-c3cc4c(cc3F)C(=O)NCC4)c(N)nc2F)cc(C)c1OC [Example I-303, 6-(3-amino-6-(3-((ethyl(methyl)amino)methyl)-4-methoxy-5-methylphenyl)-5-fluoropyrazin-2-yl)-7-fluoro-3,4-dihydroisoquinolin-1(2H)-one] | 
0.1 to 10 |  | Cc1c[nH]c(=O)c2ccc(-c3nc(-c4ccc(O)c(C(C)N(C)C)c4)c(F)nc3N)cc12 (centres unmarked) [Example I-304, 6-(3-amino-6-(3-(1-(dimethylamino)ethyl)-4-hydroxyphenyl)-5-fluoropyrazin-2-yl)-4-methylisoquinolin-1(2H)-one] | 
0.1 to 10 |  | CN(C)Cc1cc(-c2nc(-c3ccc4c(=O)[nH]cc(F)c4c3)c(N)nc2F)ccc1O [Example I-305, 6-(3-amino-6-(3-((dimethylamino)methyl)-4-hydroxyphenyl)-5-fluoropyrazin-2-yl)-4-fluoroisoquinolin-1(2H)-one] | 
11 to 100 |  | Cc1c[nH]c(=O)c2ccc(-c3nc(-c4ccc(O)c(CN(C)C)c4)c(F)nc3N)cc12 [Example I-306, 6-(3-amino-6-(3-((dimethylamino)methyl)-4-hydroxyphenyl)-5-fluoropyrazin-2-yl)-4-methylisoquinolin-1(2H)-one] | 
